The record followed here is patent US20240058365A1, “External Preparation for Treating Epilepsy or Autism Spectrum Disorder” (OSAKA UNIVERSITY, priority 2019, published 2024).

Data set [1] is described as follows: Test Example 6: blood concentration after 7-day topical application. Type of data set: in vivo, ICR mice. The conditions noted are these: 0.2 wt % sirolimus gel 5 mg (10 μg sirolimus) on shaved forehead once a day, 7 days; 24 hours after last; individual mice. How it is done:
ICR mice (body weight: about 37 g) were obtained (Japan SLC, Inc.). The 0.2 wt % sirolimus gel prepared in Production Example 3 or a placebo (only the base) was applied to their shaved forehead once a day at 5 mg each (10 μg in terms of sirolimus). After 24 hours from the administration on the 7th day, blood was collected from each of the mice, and blood sirolimus concentration was measured.
(§1) The measurement of the blood concentration was performed by the same method as in Test Example 3. The blood concentration after the topical application to the skin was one 26th in terms of average value as compared to the blood concentration after systemic administration by the intraperitoneal administration. […] The action mechanism by which epileptic seizures are suppressed through systemic administration and the mechanism by which epileptic seizures are suppressed through topical application may differ from each other.

Data set [2] in a line: Test Example 6: blood concentration after 7-day intraperitoneal administration. To be noted: intraperitoneal 3 mg/kg/day for 7 days; 24 hours after the 7th administration; individual mice. Type of data set: in vivo, mice (C57BL/6J). How it is done:
Sirolimus (3 mg/kg/day) or a placebo (saline) was intraperitoneally administered to mice (C57BL/6J, body weight: 20 g) once a day for 7 days. After 24 hours from the administration on the 7th day, blood was collected from each of the mice, and blood sirolimus concentration was measured.
as §1

The test system of data set [3] is Tuberous sclerosis complex model mice. The data set is described as follows: Test Example 5: number of epileptic seizures (intraperitoneal administration). It is filed as in vivo. To be noted: intraperitoneal 3 mg/kg/day once a day for 7 days; observed 2 minutes 5 times per day; n=6. The protocol: FIG. 3 is a graph showing results obtained by intraperitoneally administering sirolimus (3 mg/kg/day) or saline to model mice and control mice (normal mice) once a day for 7 days (n=6 in each group). Homo represents tuberous sclerosis complex model mice, and Ct represents control mice (normal mice). *P<0.05, **P<0.01
Sirolimus (3 mg/kg/day) or a placebo (saline) was intraperitoneally administered to model mice and normal mice similar to those in Test Example 1 once a day for 7 days. The number of seizures was measured by observing the mice for 2 minutes 5 times per day (n=6 in each group). […] The number of seizures over 7 days in the group intraperitoneally administered sirolimus was about 5, which was nearly equal to the number of seizures in the case where the 0.2 wt % sirolimus gel was administered to the forehead once a day at 5 mg (10 μg in terms of sirolimus).

“And” between values parts separate entries of the source, which are not always exact repeats. Equal values may be shown once.

On to `CO[C@H]1C[C@@H]2CC[C@@H](C)[C@@](O)(O2)C(=O)C(=O)N2CCCC[C@H]2C(=O)O[C@H]([C@H](C)C[C@@H]2CC[C@@H](O)[C@H](OC)C2)CC(=O)[C@H](C)/C=C(\C)[C@@H](O)[C@@H](OC)C(=O)[C@H](C)C[C@H](C)/C=C/C=C/C=C/1C` [Sirolimus, sirolimus], for which the blood sirolimus concentration in data set [1] is 3.87 ng/ml · blood and 2.85 ng/ml · blood and 5.98 ng/ml · blood; in data set [2], 94.43 ng/ml · blood and 85.59 ng/ml · blood and 48.55 ng/ml · blood and 216.83 ng/ml · blood. Besides, the “number of seizures over 7 days” value in data set [3] is given as “about 5”.
